Results taken from publication PMC7503848 (International Journal of Molecular Sciences, 2020).
Entries after “also recorded” stand apart in the source; their conditions may differ.

What was measured:
myosin A tail [1] = assay: Far Western-Dot blot assay; assay type: binding, Plasmodium falciparum; details: 5 µg immobilized on nitrocellulose; 5 µg/mL biotinylated myosin A tail, 2 h room temperature; anti-biotin
Method: For Far-Western Dot-blot assay, 5 µg each of ZA1S peptide, BSA, and non-specific peptide (N′- pSDNGpSGDD -C′) was immobilized on the strip. Subsequent to the drying of the membrane, it was blocked overnight at 4 °C, following which the second peptide myosin A was overlaid in 5 µg/mL of binding solution (1% BSA/PBST) on the strip for 2 h at room temperature. The strip was washed stringently, and the bound myosin A peptide was detected using an anti-biotin antibody (1:100 dilution) and HRP-conjugated secondary antibody.

myosin A tail [2] = assay: ELISA, myosin A tail on immobilized ZA1S; assay type: binding, Plasmodium falciparum; details: ZA1S coated, myosin A tail overlaid, anti-biotin antibody, 450 nm
From the text: All wells were put up in triplicates.

P. falciparum 3D7 = assay: Growth inhibition assay (GIA), P. falciparum 3D7; assay type: cell-based, Plasmodium falciparum
Method: P. falciparum 3D7 strain was thawed and cultured in vitro in human O+ erythrocytes at 4% hematocrit using the method described previously. Briefly, parasites were cultured in medium containing RPMI 1640 (Invitrogen, Carlsbad, CA, USA), supplemented with 2 g/L NaHCO3 (Sigma, St. Louis, MO, USA), 5 g/L albumax (Invitrogen), 50 mg/L hypoxanthine (Sigma), and 10 µg/mL gentamicin sulfate (Invitrogen, Carlsbad, CA, USA) at a pH of 7.2 under mixed gas condition (5% CO2, 5% O2, […]) at 37 °C.
For the growth inhibition assay, 36–38 h’ parasites were purified by percoll (GE Healthcare, Chicago, IL, USA) density gradient centrifugation. The assay was put on the late trophozoite stage in a 24-well plate in quadruplets in a total 500 µL volume/well. Initial parasitemia and hematocrit were adjusted to 1% and 2%, respectively. ZA1S peptide was added at a final concentration of 10 µM, 20 µM, and 40 µM. Control wells without any peptide or inhibitor were set to validate the normal growth rate of the parasite. After 24 h, a smear was made and fixed in methanol, followed by staining with 10% Giemsa (Sigma, St. Louis, MO, USA) for 10 min. The percent of infected erythrocytes containing different stages of the parasite was counted using a light microscope under 100X oil-immersion. The percent of growth inhibition was calculated using the following formula, and data were plotted graphically. % Growth inhibition = (Control-treated)/Control × 100

Q: With “DIDIDIMHE [ZA1S, nine amino acid long shortened peptide derived from ZA1 (…)]” as the sequence, how does the “Detection of bound myosin A” value (myosin A tail [1]) read?
A: Myosin A was detected in the spot corresponding to ZA1S

Q: And the “Binding of myosin A tail to ZA1S” value (myosin A tail [2])?
A: significant binding

Q: And the Invasion inhibition (P. falciparum 3D7; 10, 20, 40 µM ZA1S on late trophozoite/schizont stage, 24 h, 1% parasitemia, 2% hematocrit, human O+ erythrocytes, Giemsa smear)?
A: concentration-dependent increase in invasion inhibition; also recorded: abrogated the invasion of P. falciparum in RBCs

Q: What about the “Completeness of parasite invasion inhibition” value (P. falciparum 3D7; Pfal growth inhibition assay) of the same sequence?
A: we did not find a complete disruption of myosin A/MTIP complex so as to completely inhibit parasite invasion

Q: What about the Parasite morphology (P. falciparum 3D7; increasing concentrations of ZA1S (10, 20, 40 µM), 24 h, Giemsa smear) of the same sequence?
A: no change in the parasite morphology
